Reference: patent US8530513B1, “Pharmaceutical uses of diterpene excavatolide B from a coral or an analogue thereof” (National Sun Yat-Sen University, priority 2012, dated 2013)

How the values were obtained:
Assay type in all cases: in vivo
[1] = tested on: MMP-9 mRNA; assay: TPA-induced MMP-9 mRNA expression in mouse skin, RT-PCR; conditions: for TPA-induced MMP-9 mRNA expression (in words): topical after TPA, 6 h, indicated concentrations
Procedure: Shaven abdominal skins of female C57BL/6JNarl mice were untreated or topically treated with vehicle (acetone, […]) or TPA (10 nmol in […]) for 6 h or treated first with TPA for 10 min and then with the indicated concentrations of BrD1 for 6 h. Total RNA was extracted from treated abdominal skins of female mice using TRIzol reagent (Invitrogen Corp., Carlsbad, Calif.). RT-PCR reactions using AccessQuick RT-PCR system (Promega, Madison, Wis.) were carried out as described previously. The primers contained the following sequences: mouse MMP-9 sense primer 5′-[…]-3′ (SEQ ID NO. 1), and anti-sense primer 5′-[…]-3′ (SEQ ID NO. 2); mouse GAPDH sense primer 5′-[…]-3′ (SEQ ID NO. 3), and anti-sense primer 5′-[…]-3′ (SEQ ID NO. 4). Gel images were scanned and densitometry analysis of the captured image was performed using Gene Tools software (Syngene, Cambridge, UK).
(§1) Matrix metalloproteinases (MMPs) play a crucial role in many physiological and pathological processes through remodeling extracellular matrix tissues (Stamenkovic I. J Pathol 2003, 200:448-464). Matrix metalloproteinase-9 (MMP-9), a gelatinase which has a key role in inflammatory response, is activated in skin during tissue injury (Shakarjian M P, Bhatt P, Gordon M K, Chang Y C, Casbohm S L, Rudge T L, Kiser R C, Sabourin C L, Casillas R P, Ohman-Strickland P, Riley D J, Gerecke D R. J Appl Toxicol 2006, 26:239-246). In order to evaluate the anti-inflammatory effect of BrD1 on MMP-9 activation in TPA-inflamed skin, BrD1 was topically applied after TPA treatment for 24 h. […] Inhibiton of TPA-inducedMMP-9 expression by BrD1 treatment could also be readily observed at the mRNA level.

[2] = tested on: NF-κB; assay: TPA-induced NF-κB phosphorylation in mouse skin, western blot; conditions: topical for 2 h after TPA
Procedure: (§2) Shaven abdominal skins of female C57BL/6JNarl mice were not treated or topically treated with vehicle (acetone, 200 μl/site) or TPA (10 nmol in 200 μl acetone/site) at indicated time points or treated first with TPA for 10 min, then with the indicated concentrations of BrD1 at the indicated time points. Abdominal skin samples were collected, homogenated and lysed to prepare total proteins. Protein samples were subsequently resolved by SDS-PAGE using a gradient gel. The resolved proteins were transferred to a PVDF Immobilon-P membrane (Millipore, Bedford, Calif.), and the membrane was blocked with 5% non-fat dry milk in PBST buffer (phosphate-buffered saline (PBS) containing 0.1% Tween 20) for 60 minutes at room temperature. The membranes were incubated overnight at 4° C. with commercially available antibodies (1:1000 dilutions). Loading of equal amounts of protein was assessed using mouse β-actin. The blots were rinsed three times with PBST buffer for 5 minutes. Washed blots were incubated with HRP-conjugated secondary antibody (1:100,000 dilution), then washed again three times with PBST buffer. […] Quantification of bands was performed using Image J software.
(§3) We therefore evaluated whether BrD1 could interfere with TPA-induced activation of Akt and Erk in inflamed skin. […] We thus determined the phosphorylation level of Akt, Erk, NF-κB and IκBα in skins subjected to different treatments. […]

[3] = tested on: MMP-9; assay: TPA-induced MMP-9 protein expression in mouse skin, western blot; conditions: for TPA-induced MMP-9 protein expression (in words): topical after TPA, 24 h, indicated concentrations
Procedure: Shaven abdominal skins of female C57BL/6JNarl mice were not treated or topically treated with vehicle (acetone, 200 μl/site) or TPA (10 nmol in 200 μl acetone/site) at indicated time points or treated first with TPA for 10 min, then with the indicated concentrations of BrD1 at the indicated time points. Abdominal skin samples were collected, homogenated and lysed to prepare total proteins. Protein samples were subsequently resolved by SDS-PAGE using a gradient gel. The resolved proteins were transferred to a PVDF Immobilon-P membrane (Millipore, Bedford, Calif.), and the membrane was blocked with 5% non-fat dry milk in PBST buffer (phosphate-buffered saline (PBS) containing 0.1% Tween 20) for 60 minutes at room temperature. The membranes were incubated overnight at 4° C. with commercially available antibodies (1:1000 dilutions). Loading of equal amounts of protein was assessed using mouse β-actin. The blots were rinsed three times with PBST buffer for 5 minutes. Washed blots were incubated with HRP-conjugated secondary antibody (1:100,000 dilution), then washed again three times with PBST buffer. The transferred proteins were visualized with an enhanced chemiluminescence (ECL) detection kit (Amersham Pharmacia Biotech, Buckinghamshire, UK). Quantification of bands was performed using Image J software.
as §1

[4] = tested on: COX-2; assay: TPA-induced COX-2 expression in mouse skin, immunohistochemical staining; conditions: topical for 6 h after TPA, anti-COX-2 immunostaining
[5] = tested on: IκBα; assay: TPA-stimulated IκBα phosphorylation in mouse skin, western blot; conditions: topical for 2 h after TPA
Procedure: as §2, §3

In the case of CCCC(=O)O[C@H]1C/C(C)=C\[C@@H]2OC(=O)[C@]3(C)O[C@]23[C@@H](OC(C)=O)[C@H]2[C@@H](C)[C@@H](O)C[C@H](OC(C)=O)[C@]2(C)[C@H]1OC(C)=O [BrD1, excavatolide B], the “inhibition of TPA-induced MMP-9 mRNA expression” value ([1]; 1 mg/site/mouse topical, 6 h after TPA) is reported as no more than 82%, the “TPA-induced MMP-9 mRNA expression (in words)” value [1] is reported as “significantly inhibited MMP-9 mRNA expression in a dose-dependent manner” and the “TPA-induced MMP-9 mRNA expression (in words)” value ([1]; listed as excavatolide B) is reported as “significantly inhibits MMP-9 mRNA expression in a dose-dependent manner”. The “phosphorylation of NF-κB” value [2] was “effectively inhibited the phoshporylation of NF-κB”, the “phosphorylation of NF-κB” value ([2]; listed as excavatolide B) was “effectively inhibits the phoshporylation of NF-κB” and the “inhibition of TPA-induced MMP-9 protein expression” value ([3]; 1 mg/site/mouse topical, 24 h after TPA) was no more than 89%. For the same molecule, the “TPA-induced MMP-9 protein expression (in words)” value [3] was “significantly inhibited TPA-induced MMP-9 protein expression in a dose-dependent manner”, the “TPA-induced MMP-9 protein expression (in words)” value ([3]; listed as excavatolide B) was “significantly inhibits TPA-induced MMP-9 protein expression in a dose-dependent manner” and the “TPA-induced COX-2 expression” value [4] was “reduced the TPA-induced COX-2 expression in the epidermis”. For the same molecule, the “TPA-induced COX-2 expression” value ([4]; listed as excavatolide B) was “reduces the TPA-induced COX-2 expression in the epidermis”, the “TPA-stimulated phosphorylation of IκBα” value [5] was “significantly inhibited the TPA-stimulated phosphorylation of Akt and IκBα” and the “TPA-stimulated phosphorylation of IκBα” value ([5]; listed as excavatolide B) was “significantly inhibits the TPA-stimulated phosphorylation of Akt and IκBα”.
